Results from PMC11189555, “Aryl amino acetamides prevent Plasmodium falciparum ring development via targeting the lipid-transfer protein PfSTART1” (Nature Communications, 2024).
Entries after “also recorded” stand apart in the source; their conditions may differ.

Tested on: stage IV-V gametocytes
Assay: Standard membrane feeding assay: stage V gametocytes on day 17
Format: cell-based, Plasmodium falciparum
Conditions: days 14-17; for Percentage of Stage V gametocytes: Fig 7C, untreated 4.75
Experimental: These assays were performed at the Walter and Eliza Hall Institute and at the London School of Hygiene and Tropical Medicine using slightly different approaches which are described in the Supplementary Information. […]
Gametocyte culturing and standard membrane feeding assay (London School of Hygiene and Tropical Medicine). P. falciparum NF54 gametocytes were prepared for blood-feeding to mosquitoes according to the method described by 13, with some slight modifications. Briefly, gametocyte cultures seeded at 2% overall parasitaemia and 4% haematocrit were maintained at 37 °C for 17 days with daily media changes.
Gametocyte functional viability was assessed by ex-flagellation assay at day 14 post induction, observed by light microscopy. An. stephensi (SD500 strain) were reared as […]
Gametocyte aliquots from a single NF54 culture, produced as above, were incubated […]
or culture medium only (no -drug control) from day 14 until day 17 when SMFA was carried out. Fresh drug -containing media was provided each day during this exposure.
Pots of 70 -80 two- to five-day old female An. stephensi mosquitoes were allowed to feed on 500 µL of the respective culture+drug mixture, presented to each pot in a pre - heated 3D -printed water channel membrane feeder 15, until fully fed. Mosquitoes were placed in an incubator at standard conditions and midguts dissected in 0.25% mercurochrome stain for oocyst counts by light microscopy 7-8 days post-feed. […]

With `CC(C)(Nc1ccc(Cl)c(S(=O)(=O)N2CCOCC2)c1)C(=O)Nc1ccc(F)c(Cl)c1` [W-991] the “Percentage of Stage V gametocytes” value (W-991 1 nM) was 5%, the “Percentage of Stage V gametocytes” value (W-991 50 nM) was 5.3% and the “Percentage of Stage V gametocytes” value (W-991 100 nM) was 5%. The “effect on gametocyte development” value (W-991 1, 50, 100 nM) was “no defect in gametocyte development; also recorded: no impact”.
